Source: patent US20120142705A1, “ISATIN AND OXINDOLE COMPOUNDS” (priority 2010, published 2012)

Biological target: T1, Recombinant human liver GK1 (GST-GK) (Homo sapiens, UniProt P35557)
T1 construct: made in house; host or cells: E. coli
T1 sequence (P35557 1-466 isoform P35557-2): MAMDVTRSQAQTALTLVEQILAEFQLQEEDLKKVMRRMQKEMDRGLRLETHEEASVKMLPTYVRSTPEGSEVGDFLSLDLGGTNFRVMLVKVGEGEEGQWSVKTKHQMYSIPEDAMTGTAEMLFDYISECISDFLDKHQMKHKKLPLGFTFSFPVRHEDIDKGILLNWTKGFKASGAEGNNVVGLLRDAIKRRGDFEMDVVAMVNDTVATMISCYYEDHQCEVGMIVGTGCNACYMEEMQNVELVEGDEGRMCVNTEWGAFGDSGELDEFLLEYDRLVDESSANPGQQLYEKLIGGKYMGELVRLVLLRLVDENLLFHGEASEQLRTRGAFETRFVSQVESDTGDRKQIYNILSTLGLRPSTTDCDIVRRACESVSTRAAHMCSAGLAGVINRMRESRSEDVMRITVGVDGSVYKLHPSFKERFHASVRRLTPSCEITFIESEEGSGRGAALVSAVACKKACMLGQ
Experiment: In vitro glucokinase activity, G6PDH-coupled spectrophotometric assay
Type: biochemical
Settings: 5 mM D-glucose, 30° C., pH 7.1
Summary of the method: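 GST-fused human liver GK1 from E. coli, run at 30° C. in pH 7.1 HEPES with 5 mM glucose, 1 mM ATP and 10% DMSO, coupled via G6PDH to NADH. OD340 rate measured after enzyme start; SC1.5 is the activator concentration raising activity 50% over DMSO control.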

SC1.5 (concentration of activator that produced a 50% increase in the activity of GK) [µM]	Compound
1.91	N#Cc1ccc2c(c1)N(C(CC1CCCC1)C(=O)Nc1ccccn1)C(=O)C2 (centres unmarked) [Example 137, 2-(6-Cyano-2-oxo-2,3-dihydro-indol-1-yl)-3-cyclopentyl-N-pyridin-2-yl-propionamide]
2.94	CS(=O)(=O)c1ccc2c(c1)N(C(CC1CCCC1)C(=O)Nc1nccs1)C(=O)C2 (centres unmarked) [Example 138, 3-Cyclopentyl-2-(6-methanesulfonyl-2-oxo-2,3-dihydro-indol-1-yl)-N-thiazol-2-yl-propionamide]

Second part, the compound before the results:

Compound	SC1.5 (concentration of activator that produced a 50% increase in the activity of GK) [µM]
O=C(Nc1nccs1)C(CC1CCCC1)N1C(=O)Cc2ccc(Br)cc21 (centres unmarked) [Example 134, 2-(6-Bromo-2-oxo-2,3-dihydro-indol-1-yl)-3-cyclopentyl-N-thiazol-2-yl-propionamide]	0.19
O=C(Nc1ccccn1)C(CC1CCCC1)N1C(=O)Cc2ccc(Br)cc21 (centres unmarked) [Example 135, 2-(6-Bromo-2-oxo-2,3-dihydro-indol-1-yl)-3-cyclopentyl-N-pyridin-2-yl-propionamide]	0.12
Cn1ccc(NC(=O)C(CC2CCCC2)N2C(=O)Cc3ccc(Br)cc32)n1 (centres unmarked) [Example 136, 2-(6-Bromo-2-oxo-2,3-dihydro-indol-1-yl)-3-cyclopentyl-N-(1-methyl-1H-pyrazol-3-yl)-propionamide]	0.88
